In patent US11780901B2, “Analogues of parathyroid hormone (1-34) that function as agonists of the parathyroid hormone receptor-1 and display modified activity profiles” (Wisconsin Alumni Research Foundation, priority 2013, dated 2023):
Where two headings read alike, the source gives them in different places. Starred links: 1 amine or outer side, 2 acyl side, 3 side chain; linkers in the order of their positions; H or OH if unused. Non-standard residues stand in square brackets, D forms with d. Residues, ends and D or L forms follow the SMILES beside them. X7 = NC(=O)CC[C@@H](CN[*:1])C(=O)[*:2]

Experiments:
Assay type in all cases: cell-based
PTHR1 and PTHR2 = assay: Tolerance pattern of β residues for PTHR1 and PTHR2 activation; design: key: “*” denotes potent PTHR1-selective agonism; “#” denotes potent PTHR2-selective agonism; “*#” denotes potent agonism of both PTHR1 and PTHR2; details: PTHR1 vs PTHR2 agonism
Text: Enhanced selectivity via double α→β replacement.

PTHR1 = biological target: T1, PTHR1 (Homo sapiens, UniProt Q03431); assay: PTHR1 activation, cAMP production (GloSensor) in HEK293 cells; design: expressed in transfected cells; details: for PTHR1 Activation: Derivative EC50/PTH EC50: normalized to EC50 of PTH(1-34)-NH2 ([…]), cAMP production
T1 sequence (Q03431 27-593): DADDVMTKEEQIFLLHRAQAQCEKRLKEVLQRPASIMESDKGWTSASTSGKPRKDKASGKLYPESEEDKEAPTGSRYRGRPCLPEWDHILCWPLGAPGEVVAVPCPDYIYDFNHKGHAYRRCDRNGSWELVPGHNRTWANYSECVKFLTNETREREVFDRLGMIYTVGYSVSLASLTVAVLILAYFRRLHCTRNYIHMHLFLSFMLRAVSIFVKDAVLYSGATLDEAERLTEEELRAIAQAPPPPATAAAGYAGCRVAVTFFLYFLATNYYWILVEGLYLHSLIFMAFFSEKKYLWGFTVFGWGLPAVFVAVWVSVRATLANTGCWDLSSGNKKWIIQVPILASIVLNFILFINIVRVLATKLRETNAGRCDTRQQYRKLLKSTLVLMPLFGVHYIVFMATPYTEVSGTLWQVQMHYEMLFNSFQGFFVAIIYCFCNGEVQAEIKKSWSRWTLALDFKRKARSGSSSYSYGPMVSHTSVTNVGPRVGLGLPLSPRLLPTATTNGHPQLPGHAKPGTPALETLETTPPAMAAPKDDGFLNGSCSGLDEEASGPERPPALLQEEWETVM
Text: The assays employ HEK-293 cells that have been engineered to express the appropriate receptor. GloSensor-based detection of cAMP provides a read-out of receptor activation.
(§1) For PTHR1 activation and all the binding data, data represent mean±s.e.m from three independent measurements; For PTHR2 activation, data represent mean±s.e.m from four independent measurements. Curves were fit to the data using a four-parameter sigmoidal dose-response equation.
For cAMP dose-response assays, monolayers of confluent HEK 293 cells were pre-incubated with buffer containing d-luciferin (0.5 mM) in 96 well plates at room temperature until a stable baseline level of luminescence was established (30 min). Varying concentrations of agonist were then added, and the time course of luminescence response was recorded using a Perkin Elmer plate reader following α/β-peptide addition.

PTHR2 = PTHR2 (Homo sapiens, UniProt P49190); assay: PTHR2 activation, cAMP production (GloSensor) in HEK293 cells; design: expressed in transfected cells; details: for EC50: HEK-293 cells, GloSensor cAMP, read-out: EC50 (nM) of PTHR2 Activation
Chain of PTHR2 (P49190 25-550): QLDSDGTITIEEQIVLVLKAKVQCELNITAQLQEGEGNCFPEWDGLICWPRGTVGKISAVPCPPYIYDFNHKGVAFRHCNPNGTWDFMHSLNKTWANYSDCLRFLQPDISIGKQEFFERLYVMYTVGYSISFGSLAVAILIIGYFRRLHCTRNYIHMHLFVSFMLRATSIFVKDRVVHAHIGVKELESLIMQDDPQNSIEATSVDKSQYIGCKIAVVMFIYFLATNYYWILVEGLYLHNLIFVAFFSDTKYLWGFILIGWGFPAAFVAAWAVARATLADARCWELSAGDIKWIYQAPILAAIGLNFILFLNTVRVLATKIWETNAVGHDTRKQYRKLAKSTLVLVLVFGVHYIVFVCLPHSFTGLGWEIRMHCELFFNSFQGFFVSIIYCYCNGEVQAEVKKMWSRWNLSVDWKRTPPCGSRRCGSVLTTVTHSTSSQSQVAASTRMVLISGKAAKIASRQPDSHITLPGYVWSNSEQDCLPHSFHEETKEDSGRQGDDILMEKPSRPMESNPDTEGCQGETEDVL
Text: The assays employ HEK-293 cells that have been engineered to express the appropriate receptor. GloSensor-based detection of cAMP provides a read-out of receptor activation. […] (Carter, P. H. et al. Actions of the Small Molecule Ligands SW106 and AH-3960 on the Type-1 Parathyroid Hormone Receptor. Molecular Endocrinology 29, 307-321 (2015).)
as §1, with “FIGS. 10A and 10B depict dose-response curves of PTHR1 activation (FIG. 10A) and PTHR2 activation (FIG. 10B) in HEK293 cells stably expressing PTHR1 or PTHR2. For PTHR1” for “For PTHR1”

[1] = HEK-293 cells, GloSensor cAMP, read-out: EC50 (nM) of PTHR1 Activation
[2] = Table 8, hPTHR1, read-out: PTHR1 EC50

Compound | Tolerance Pattern of β AA (PTHR1 and PTHR2) | EC50 (PTHR1; [1]) [nM] | PTHR1 Activation: Derivative EC50/PTH EC50 (PTHR1) | EC50 (PTHR2) [nM] | PTHR2 Activation: Derivative EC50/PTH EC50 (PTHR2; normalized to EC50 of PTH(1-34)-NH2 ([…] printed), cAMP production) | EC50 (PTHR1; [2]) [nM]
CC[C@H](C)[C@H](NC(=O)[C@H](CCC(=O)O)NC(=O)[C@H](CO)NC(=O)[C@@H](NC(=O)[C@@H](N)CO)C(C)C)C(=O)N[C@@H](CCC(N)=O)C(=O)NC[C@@H](CC(C)C)C(=O)N[C@@H](CCSC)C(=O)N[C@@H](Cc1c[nH]cn1)C(=O)N[C@@H](CC(N)=O)C(=O)N[C@@H](CC(C)C)C(=O)NCC(=O)N[C@@H](CCCCN)C(=O)N[C@@H](Cc1c[nH]cn1)C(=O)N[C@@H](CC(C)C)C(=O)N[C@@H](CC(N)=O)C(=O)N[C@@H](CO)C(=O)N[C@@H](CCSC)C(=O)N[C@@H](CCC(=O)O)C(=O)N[C@@H](CCCNC(=N)N)C(=O)N[C@H](C(=O)N[C@@H](CCC(=O)O)C(=O)N[C@@H](Cc1c[nH]c2ccccc12)C(=O)N[C@@H](CC(C)C)C(=O)N[C@@H](CCCNC(=N)N)C(=O)N[C@@H](CCCCN)C(=O)N[C@@H](CCCCN)C(=O)N[C@@H](CC(C)C)C(=O)N[C@@H](CCC(N)=O)C(=O)N[C@@H](CC(=O)O)C(=O)N[C@H](C(=O)N[C@@H](Cc1c[nH]cn1)C(=O)N[C@@H](CC(N)=O)C(=O)N[C@@H](Cc1ccccc1)C(N)=O)C(C)C)C(C)C [SEQ. ID. NO: 28] | * | 0.36 ± 0.11 | 0.95 | 41.4 ± 5.18 | 47.64 | 
CC[C@H](C)[C@H](NC(=O)[C@H](CCC(=O)O)NC(=O)[C@H](CO)NC(=O)[C@@H](NC(=O)[C@@H](N)CO)C(C)C)C(=O)NC[C@H](CCC(N)=O)C(=O)N[C@@H](CC(C)C)C(=O)N[C@@H](CCSC)C(=O)N[C@@H](Cc1c[nH]cn1)C(=O)N[C@@H](CC(N)=O)C(=O)N[C@@H](CC(C)C)C(=O)NCC(=O)N[C@@H](CCCCN)C(=O)N[C@@H](Cc1c[nH]cn1)C(=O)N[C@@H](CC(C)C)C(=O)N[C@@H](CC(N)=O)C(=O)N[C@@H](CO)C(=O)N[C@@H](CCSC)C(=O)N[C@@H](CCC(=O)O)C(=O)N[C@@H](CCCNC(=N)N)C(=O)N[C@H](C(=O)N[C@@H](CCC(=O)O)C(=O)N[C@@H](Cc1c[nH]c2ccccc12)C(=O)N[C@@H](CC(C)C)C(=O)N[C@@H](CCCNC(=N)N)C(=O)N[C@@H](CCCCN)C(=O)N[C@@H](CCCCN)C(=O)N[C@@H](CC(C)C)C(=O)N[C@@H](CCC(N)=O)C(=O)N[C@@H](CC(=O)O)C(=O)N[C@H](C(=O)N[C@@H](Cc1c[nH]cn1)C(=O)N[C@@H](CC(N)=O)C(=O)N[C@@H](Cc1ccccc1)C(N)=O)C(C)C)C(C)C [SEQ. ID. NO: 35] (H-SVSEI[X7]LMHNLGKHLNSMERVEWLRKKLQDVHNF-NH2; N-terminus assumed) | *# | 0.42 ± 0.07 | 1.11 |  |  | 1.96 ± 0.45
CC[C@H](C)[C@H](NC(=O)[C@H](CCC(=O)O)NC(=O)[C@H](CO)NC(=O)[C@@H](NC(=O)[C@@H](N)CO)C(C)C)C(=O)N[C@@H](CCC(N)=O)C(=O)NC[C@H](CC(C)C)C(=O)N[C@@H](CCSC)C(=O)N[C@@H](Cc1c[nH]cn1)C(=O)N[C@@H](CC(N)=O)C(=O)N[C@@H](CC(C)C)C(=O)NCC(=O)N[C@@H](CCCCN)C(=O)N[C@@H](Cc1c[nH]cn1)C(=O)N[C@@H](CC(C)C)C(=O)N[C@@H](CC(N)=O)C(=O)N[C@@H](CO)C(=O)N[C@@H](CCSC)C(=O)N[C@@H](CCC(=O)O)C(=O)N[C@@H](CCCNC(=N)N)C(=O)N[C@H](C(=O)N[C@@H](CCC(=O)O)C(=O)N[C@@H](Cc1c[nH]c2ccccc12)C(=O)N[C@@H](CC(C)C)C(=O)N[C@@H](CCCNC(=N)N)C(=O)N[C@@H](CCCCN)C(=O)N[C@@H](CCCCN)C(=O)N[C@@H](CC(C)C)C(=O)N[C@@H](CCC(N)=O)C(=O)N[C@@H](CC(=O)O)C(=O)N[C@H](C(=O)N[C@@H](Cc1c[nH]cn1)C(=O)N[C@@H](CC(N)=O)C(=O)N[C@@H](Cc1ccccc1)C(N)=O)C(C)C)C(C)C [SEQ. ID. NO: 36] | *# | 0.47 ± 0.14 | 1.24 |  |  | 0.24 ± 0.01
CC[C@H](C)[C@H](NC(=O)[C@H](CCC(=O)O)NC(=O)[C@H](CO)NC(=O)[C@@H](NC(=O)C[C@@H](N)CO)C(C)C)C(=O)N[C@@H](CCC(N)=O)C(=O)N[C@@H](CC(C)C)C(=O)N[C@@H](CCSC)C(=O)N[C@@H](Cc1c[nH]cn1)C(=O)N[C@@H](CC(N)=O)C(=O)N[C@@H](CC(C)C)C(=O)NCC(=O)N[C@@H](CCCCN)C(=O)N[C@@H](Cc1c[nH]cn1)C(=O)N[C@@H](CC(C)C)C(=O)N[C@@H](CC(N)=O)C(=O)N[C@@H](CO)C(=O)N[C@@H](CCSC)C(=O)N[C@@H](CCC(=O)O)C(=O)N[C@@H](CCCNC(=N)N)C(=O)N[C@H](C(=O)N[C@@H](CCC(=O)O)C(=O)N[C@@H](Cc1c[nH]c2ccccc12)C(=O)N[C@@H](CC(C)C)C(=O)N[C@@H](CCCNC(=N)N)C(=O)N[C@@H](CCCCN)C(=O)N[C@@H](CCCCN)C(=O)N[C@@H](CC(C)C)C(=O)N[C@@H](CCC(N)=O)C(=O)N[C@@H](CC(=O)O)C(=O)N[C@H](C(=O)N[C@@H](Cc1c[nH]cn1)C(=O)N[C@@H](CC(N)=O)C(=O)N[C@@H](Cc1ccccc1)C(N)=O)C(C)C)C(C)C [SEQ. ID. NO: 38] | *# | 0.27 ± 0.06 |  |  |  | 
CC[C@H](C)[C@H](NC(=O)[C@H](CCC(=O)O)NC(=O)[C@H](CO)NC(=O)[C@@H](NC(=O)[C@@H](N)CO)C(C)C)C(=O)N[C@@H](CCC(N)=O)CC(=O)N[C@@H](CC(C)C)C(=O)N[C@@H](CCSC)C(=O)N[C@@H](Cc1c[nH]cn1)C(=O)N[C@@H](CC(N)=O)C(=O)N[C@@H](CC(C)C)C(=O)NCC(=O)N[C@@H](CCCCN)C(=O)N[C@@H](Cc1c[nH]cn1)C(=O)N[C@@H](CC(C)C)C(=O)N[C@@H](CC(N)=O)C(=O)N[C@@H](CO)C(=O)N[C@@H](CCSC)C(=O)N[C@@H](CCC(=O)O)C(=O)N[C@@H](CCCNC(=N)N)C(=O)N[C@H](C(=O)N[C@@H](CCC(=O)O)C(=O)N[C@@H](Cc1c[nH]c2ccccc12)C(=O)N[C@@H](CC(C)C)C(=O)N[C@@H](CCCNC(=N)N)C(=O)N[C@@H](CCCCN)C(=O)N[C@@H](CCCCN)C(=O)N[C@@H](CC(C)C)C(=O)N[C@@H](CCC(N)=O)C(=O)N[C@@H](CC(=O)O)C(=O)N[C@H](C(=O)N[C@@H](Cc1c[nH]cn1)C(=O)N[C@@H](CC(N)=O)C(=O)N[C@@H](Cc1ccccc1)C(N)=O)C(C)C)C(C)C [SEQ. ID. NO: 43] | # | 8.45 ± 1.35 | 22.24 |  |  | 
CC[C@H](C)[C@H](NC(=O)[C@H](CCC(=O)O)NC(=O)[C@H](CO)NC(=O)[C@@H](NC(=O)[C@@H](N)CO)C(C)C)C(=O)N[C@@H](CCC(N)=O)C(=O)N[C@H](CC(=O)N[C@@H](CCSC)C(=O)N[C@@H](Cc1c[nH]cn1)C(=O)N[C@@H](CC(N)=O)C(=O)N[C@@H](CC(C)C)C(=O)NCC(=O)N[C@@H](CCCCN)C(=O)N[C@@H](Cc1c[nH]cn1)C(=O)N[C@@H](CC(C)C)C(=O)N[C@@H](CC(N)=O)C(=O)N[C@@H](CO)C(=O)N[C@@H](CCSC)C(=O)N[C@@H](CCC(=O)O)C(=O)N[C@@H](CCCNC(=N)N)C(=O)N[C@H](C(=O)N[C@@H](CCC(=O)O)C(=O)N[C@@H](Cc1c[nH]c2ccccc12)C(=O)N[C@@H](CC(C)C)C(=O)N[C@@H](CCCNC(=N)N)C(=O)N[C@@H](CCCCN)C(=O)N[C@@H](CCCCN)C(=O)N[C@@H](CC(C)C)C(=O)N[C@@H](CCC(N)=O)C(=O)N[C@@H](CC(=O)O)C(=O)N[C@H](C(=O)N[C@@H](Cc1c[nH]cn1)C(=O)N[C@@H](CC(N)=O)C(=O)N[C@@H](Cc1ccccc1)C(N)=O)C(C)C)C(C)C)CC(C)C [SEQ. ID. NO: 44] | * |  |  | 35 ± 2.84 |  | 
